Laboratory results reported in patent US6429204B1, “Method of inhibiting cancer growth” (University of Miami, priority 1997, dated 2002).
Values after ≈ are worked out from the molar mass of the structure shown.

What was measured:
[1] = test system: DU-145 and TSU-PR1 prostate cancer cell lines; assay: Prostate cancer cell viability/proliferation (trypan blue, MTT); type: cell-based, human; settings: Homo sapiens; 48 hr exposure; read-out: 50% inhibition dose (IC50), cell proliferation
Excerpt: To determine the cytotoxicity of CMTs on prostate tumor cell lines, TSU-PR1 cells (and cells of other tumor cell lines) were exposed to various CMTs or to doxycycline for 24 hr or 48 hr in a complete medium. Cell viability (percent of live cells) was estimated by counting the cells following trypan blue staining. Cellular viability was also estimated by the tetrazolium dye reduction assay (MTT assay) (Lokeshwar et al. 1995b). Due to the aggressive proliferative capacity of cancer cells, it is assumed that viable cells are actively proliferating. Therefore, the measurement of viability was used as an estimate of proliferation. Results are expressed as Mean±SEM from three separate experiments.

Dunning MAT LyLu cells = assay: Cytotoxic effect on MAT LyLu cells (trypan blue); type: cell-based, rat; settings: 24 hr or 48 hr exposure
Method: Cell viability was estimated by trypan blue staining following exposure to the drugs. The results of these studies are summarized in FIG. 4A (24 hours) and FIG. 4B (48 hr). Data are presented as Mean±SEM from three separate experiments.

Gelatinase A = molecular target: T1, Gelatinase A (Homo sapiens, UniProt P08253); assay: Zymography with densitometry of C8161 conditioned medium, gelatinase A; type: cell-based; settings: 50 μg/mL, 24 hr
T1 construct: endogenous in cells; host or cells: C8161
T1 sequence (P08253 110-660): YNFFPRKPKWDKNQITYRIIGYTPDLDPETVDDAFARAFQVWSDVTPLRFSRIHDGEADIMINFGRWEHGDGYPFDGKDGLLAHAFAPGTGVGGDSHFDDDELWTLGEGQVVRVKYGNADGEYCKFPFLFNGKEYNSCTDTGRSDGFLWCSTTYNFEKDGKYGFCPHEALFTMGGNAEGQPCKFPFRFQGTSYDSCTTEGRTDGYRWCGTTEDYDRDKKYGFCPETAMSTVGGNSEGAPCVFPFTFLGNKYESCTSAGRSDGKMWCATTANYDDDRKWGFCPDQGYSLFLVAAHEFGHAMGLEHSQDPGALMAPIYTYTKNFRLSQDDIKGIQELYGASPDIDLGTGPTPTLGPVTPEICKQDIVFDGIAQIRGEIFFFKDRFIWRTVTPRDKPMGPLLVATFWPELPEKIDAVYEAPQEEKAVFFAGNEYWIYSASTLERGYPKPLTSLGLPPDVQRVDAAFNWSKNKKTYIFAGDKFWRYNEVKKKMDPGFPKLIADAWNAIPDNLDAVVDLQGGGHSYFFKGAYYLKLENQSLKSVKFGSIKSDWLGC
Method: (§1) Six hundred thousand (6×10^5) C8161 cells were seeded per well in a 12-well dish coated with a laminin/collagen IV/gelatin matrix in DMEM plus Mito+ and 0.1% gentamicin sulfate. After approximately 1 hr incubation to allow the cells to attach, 50 μg/mL of either doxycycline or one of the other CMTs was added per well and the dish then placed in a 37° C. humidified 5% CO2 incubator. After 24 hr, the supernatants were removed and centrifuged to remove any cells or debris. One volume of Laemmli sample buffer minus reductant was added to two volumes of the medium, and this sample electrophoresed without prior heating or boiling on a 10% SDS-PAGE containing 0.1% gelatin (samples normalized based on the same number of cells per volume of medium per time of incubation). After electrophoresis, the gels were washed with gentle shaking at room temperature for 30 min in 50 mM Tris-HCl (pH 7.5) plus 2.5% TRITON® X100 plus 50 μg/mL of the corresponding CMT used in the original treatment. The gel was then placed in incubation buffer (50 mM Tris-Cl/10 mM CaCl2/150 mM NaCl/0.05% NaN3) also containing 50 μg/mL of the corresponding CMT, and incubated at 37° C. for 20-24 hr. The gels were stained with Coomassie BBR-250, then destained with 10% methanol/10% acetic acid in water until the wash remained clear. A photographic negative of the gel was digitized using a video camera and Snappy Video Snapshot system (Play Inc., Rancho Cordova, Calif.). An integrated density was determined for each of the cleared zones of proteolysis using the software ImagePC8α (freely available from the National Institutes of Health), and the corresponding changes in gelatinolytic activities reported compared to the control samples normalized to a value of 1.0.

Gelatinase B = molecular target: T2, Gelatinase B (Homo sapiens, UniProt P14780); assay: Zymography with densitometry of C8161 conditioned medium, gelatinase B; type: cell-based; settings: 50 μg/mL, 24 hr
T2 construct: endogenous in cells; host or cells: C8161
T2 sequence (P14780 94-707): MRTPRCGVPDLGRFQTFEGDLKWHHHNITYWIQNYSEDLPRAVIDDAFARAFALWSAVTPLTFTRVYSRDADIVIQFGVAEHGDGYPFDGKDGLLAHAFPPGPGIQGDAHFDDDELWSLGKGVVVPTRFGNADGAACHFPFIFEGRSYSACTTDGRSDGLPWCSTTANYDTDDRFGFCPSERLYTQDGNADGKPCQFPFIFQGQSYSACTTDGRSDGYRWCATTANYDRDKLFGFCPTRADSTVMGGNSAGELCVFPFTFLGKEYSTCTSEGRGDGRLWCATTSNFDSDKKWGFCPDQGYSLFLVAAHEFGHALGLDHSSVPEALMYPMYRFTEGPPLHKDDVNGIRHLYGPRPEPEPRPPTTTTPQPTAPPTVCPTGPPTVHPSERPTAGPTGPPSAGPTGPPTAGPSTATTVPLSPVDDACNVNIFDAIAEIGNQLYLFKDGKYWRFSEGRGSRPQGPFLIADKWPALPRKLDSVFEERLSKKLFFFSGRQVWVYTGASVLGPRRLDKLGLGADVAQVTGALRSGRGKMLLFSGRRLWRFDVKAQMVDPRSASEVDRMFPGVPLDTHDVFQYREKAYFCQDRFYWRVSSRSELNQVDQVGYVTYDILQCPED
Method: as §1

MAT LyLu cells = assay: Soluble nucleosome ELISA (programmed cell death), MAT LyLu; type: cell-based, rat
Method: An investigation of the cytotoxicity of chemically modified tetracycline compounds for cancer cells was undertaken to determine involvement of programmed cell death (apoptosis) (see Duke et al. 1986). MAT LyLu cells were incubated with various concentration of CMT-3 and doxycycline. Conditioned media were assayed for soluble nucleosomes, resulting from internucleosomal DNA strand breaks, using the Cell Death Detection ELISA Plus kit from Boehringer Mannheim GmbH (Catalog No. 1774425) according to the manufacturer's instructions. In the dosage-dependence trials, cells were incubated with the tetracycline compounds for 48 hr, and then media were collected. In the time trials, the cells were exposed to the tetracycline compounds for specific periods of time from 0 to 48 hr, and if appropriate were maintained in fresh media until 48 hr from the start of the experiment at which time media were collected.

Serum half-life = type: in vivo
prostate cancer cells = assay: Invasive potential of prostate cancer cells in vitro (summary); type: cell-based; settings: 5 μg/mL

IC50 [1]: 2.7 µg/mL (≈ 7.27 µM) | Gelatinase A, integrated density normalized to control 1.00 (Gelatinase A): 0.22 | Gelatinase B, integrated density normalized to control 1.00 (Gelatinase B): 0.03 | half-life (Serum half-life): ~28 h
SMILES: NC(=O)C1=C(O)CC2CC3Cc4cccc(O)c4C(=O)C3=C(O)C2(O)C1=O (centres unmarked) [CMT-3, 6-demethyl-6-deoxy-4-de(dimethylamino)tetracycline]
inhibition of cell proliferation (rank among tested drugs) (Dunning MAT LyLu cells): most effective inhibitors of cell proliferation | programmed cell death response after brief exposure (MAT LyLu cells; 4 hr at 5 μg/mL or 10 μg/mL): sufficient to elicit a putative programmed cell death response | soluble nucleosomes / programmed cell death induction (MAT LyLu cells; dosage-dependence, 48 hr): dose-dependent increase in soluble nucleosomes | inhibition at 5 µg/mL (prostate cancer cells): 90%
